Experimental data from patent US20190071670A1, “Methods Of Treatment For Alpha-1 Antitrypsin Deficiency” (Arrowhead Pharmaceuticals, Inc., priority 2016, published 2019).

Columns and labels:
Z-hAAT = assay: Semi-quantitative Western blot of soluble (monomer) and insoluble (polymer) Z-hAAT in PiZ mouse liver; assay type: in vivo, human (expressed in PiZ mice); conditions: PiZ mice liver; four biweekly IV doses 8 mg/kg with 8 mg/kg MLP delivery polymer for 8 weeks
hAAT = assay: Serum hAAT protein levels in PiZ mice (ELISA); assay type: in vivo, human (expressed in PiZ mice); conditions: for Serum hAAT levels reduced: 6 month old female PiZ mice, single IV 8 mg/kg + 8 mg/kg MLP delivery polymer; for Serum hAAT normalized to Day 1 and control / Normalized serum hAAT levels: PiZ mice; for Normalized serum hAAT levels: normalized to day 1 and saline control
Procedure: Human AAT protein levels in serum were monitored for 29 days. At the indicated times, blood samples were collected and assayed for hAAT by ELISA. Day 1 samples were collected prior to trigger administration. For mRNA analysis, 3-4 mice were euthanized at each of days 3, 8, 15, 22, and 29. For euthanized mice, cardiac stick were performed for serum isolation for AAT ELISA (200 μl serum). Half of the left lateral liver lobe was collected and snap-freeze in liquid nitrogen for RNA isolation. The remainder of the left lobes were embedded into paraffin blocks for PAS-D staining with hematoxylin as counter-stain. Serum hAAT levels in mice given AAT Duplex Pair SEQ ID NO: 5/6 were 95% reduced on day 8 and remained reduced to day 29, at which time they were 79% reduced. Mice given AAT Duplex Pair SEQ ID NO: 5/6 were euthanized at either day 3, 8, 15, 22 or 29. Mice given saline or Luciferase siRNA control (SEQ ID 7/8) were euthanized on day 29. Levels of hAAT mRNA in the livers were measured by RT-qPCR. The hAAT mRNA in mice given AAT Duplex Pair SEQ ID NO: 5/6 was reduced by 97% on day 3 and remained reduced on day 29, at which time levels were 56% reduced. The size of the globules and the area of the liver covered by globules was digitally quantitated from liver specimens stained with PAS-D. Duplex Pair SEQ ID NO: 5/6 treated mice had 70% smaller globules at day 15 and 62% smaller globules at day 29. The area of the liver covered with globules was 83% reduced on day 15 and 72% reduced on day 29 (FIG. 5).

Duplex Pair SEQ ID NO: 5/6: double-stranded AAT RNAi agent: modified antisense strand SEQ ID NO: 5 annealed to Chol-TEG sense strand SEQ ID NO: 6 (antisense TGGAACUUGGUGAUGAUAUTT; sense UAUAUAUCAUCACCAAGUUCCAT; Chol-TEG on sense strand; chemical modifications; antisense strand of dsRNA; modified_base 7 /mod_base = “2′-3′ seco corresponding nucleotide”; modified_base 2,4,6,8,10,12,14,16,18 /mod_base = “2′-deoxy-2′-fluoro corresponding nucleoside”; modified_base 3,5,9,11,13,15,17,19 /mod_base = “2′-O-methyl corresponding nucleoside”; modified_base 21 /mod_base = “5′-phosphorothioate corresponding nucleotide”; sense strand of dsRNA; modified_base 2 /mod_base = “2′-hydroxy corresponding nucleoside”; modified_base 4,6,8,10,12,14,16,18,20,22 /mod_base = “2′-deoxy-2′-fluoro corresponding nucleoside”; …)
reduction in insoluble Z-hAAT compared to saline (Z-hAAT): 79% | reduction in soluble Z-hAAT compared to saline (Z-hAAT): > 99% | Serum hAAT levels reduced (hAAT; day 8): 95% | Serum hAAT levels reduced (hAAT; day 29): 79% | Serum hAAT normalized to Day 1 and control (hAAT; single IV 0.5 mg/kg + 4 mg/kg MLP delivery polymer, Day 1): 1.00 | Serum hAAT normalized to Day 1 and control (hAAT; single IV 0.5 mg/kg + 4 mg/kg MLP delivery polymer, Day 3): 0.27 ± 0.02 | Serum hAAT normalized to Day 1 and control (hAAT; single IV 0.5 mg/kg + 4 mg/kg MLP delivery polymer, Day 8): 0.29 ± 0.09 | Serum hAAT normalized to Day 1 and control (hAAT; single IV 0.5 mg/kg + 4 mg/kg MLP delivery polymer, Day 15): 0.43 ± 0.01 | Serum hAAT normalized to Day 1 and control (hAAT; single IV 0.5 mg/kg + 4 mg/kg MLP delivery polymer, Day 22): 0.73 ± 0.03 | Serum hAAT normalized to Day 1 and control (hAAT; single IV 0.5 mg/kg + 4 mg/kg MLP delivery polymer, Day 29): 0.66 ± 0.05 | Serum hAAT normalized to Day 1 and control (hAAT; single IV 0.5 mg/kg + 4 mg/kg MLP delivery polymer, Day 35): 0.97 ± 0.02 | Serum hAAT normalized to Day 1 and control (hAAT; single IV 0.5 mg/kg + 4 mg/kg MLP delivery polymer, Day −3): 0.64 ± 0.10 | Serum hAAT normalized to Day 1 and control (hAAT; single IV 0.5 mg/kg + 8 mg/kg MLP delivery polymer, Day 1): 1.00 | Serum hAAT normalized to Day 1 and control (hAAT; single IV 0.5 mg/kg + 8 mg/kg MLP delivery polymer, Day 3): 0.20 ± 0.02 | Serum hAAT normalized to Day 1 and control (hAAT; single IV 0.5 mg/kg + 8 mg/kg MLP delivery polymer, Day 8): 0.10 ± 0.03 | Serum hAAT normalized to Day 1 and control (hAAT; single IV 0.5 mg/kg + 8 mg/kg MLP delivery polymer, Day 15): 0.19 ± 0.05 | Serum hAAT normalized to Day 1 and control (hAAT; single IV 0.5 mg/kg + 8 mg/kg MLP delivery polymer, Day 22): 0.55 ± 0.05 | Serum hAAT normalized to Day 1 and control (hAAT; single IV 0.5 mg/kg + 8 mg/kg MLP delivery polymer, Day 29): 0.49 ± 0.09 | Serum hAAT normalized to Day 1 and control (hAAT; single IV 0.5 mg/kg + 8 mg/kg MLP delivery polymer, Day 35): 0.71 ± 0.09 | Serum hAAT normalized to Day 1 and control (hAAT; single IV 0.5 mg/kg + 8 mg/kg MLP delivery polymer, Day −3): 0.71 ± 0.03 | Normalized serum hAAT levels (hAAT; single IV 2 mg/kg + 2 mg/kg MLP, day 1): 1.00 | Normalized serum hAAT levels (hAAT; single IV 2 mg/kg + 2 mg/kg MLP, day 8): 0.32 ± 0.24 | Normalized serum hAAT levels (hAAT; single IV 2 mg/kg + 2 mg/kg MLP, day 15): 0.88 ± 0.13 | Normalized serum hAAT levels (hAAT; single IV 2 mg/kg + 2 mg/kg MLP, day 20): 0.89 ± 0.18 | Normalized serum hAAT levels (hAAT; single IV 2 mg/kg + 2 mg/kg MLP, day 29): 1.01 ± 0.23 | Normalized serum hAAT levels (hAAT; single IV 2 mg/kg + 2 mg/kg MLP, day 36): 1.02 ± 0.15 | Normalized serum hAAT levels (hAAT; single IV 2 mg/kg + 2 mg/kg MLP, day −7): 0.91 ± 0.11 | Serum hAAT normalized to Day 1 and control (hAAT; single IV 2 mg/kg + 4 mg/kg MLP delivery polymer, Day 1): 1.00 | Serum hAAT normalized to Day 1 and control (hAAT; single IV 2 mg/kg + 4 mg/kg MLP delivery polymer, Day 3): 0.25 ± 0.03 | Serum hAAT normalized to Day 1 and control (hAAT; single IV 2 mg/kg + 4 mg/kg MLP delivery polymer, Day 8): 0.21 ± 0.07 | Serum hAAT normalized to Day 1 and control (hAAT; single IV 2 mg/kg + 4 mg/kg MLP delivery polymer, Day 15): 0.32 ± 0.06 | Serum hAAT normalized to Day 1 and control (hAAT; single IV 2 mg/kg + 4 mg/kg MLP delivery polymer, Day 22): 0.71 ± 0.14 | Serum hAAT normalized to Day 1 and control (hAAT; single IV 2 mg/kg + 4 mg/kg MLP delivery polymer, Day 29): 0.66 ± 0.06 | Serum hAAT normalized to Day 1 and control (hAAT; single IV 2 mg/kg + 4 mg/kg MLP delivery polymer, Day 35): 0.70 ± 0.09 | Serum hAAT normalized to Day 1 and control (hAAT; single IV 2 mg/kg + 4 mg/kg MLP delivery polymer, Day −3): 0.67 ± 0.02 | Normalized serum hAAT levels (hAAT; single IV 2 mg/kg + 4 mg/kg MLP, day 1): 1.00 | Normalized serum hAAT levels (hAAT; single IV 2 mg/kg + 4 mg/kg MLP, day 8): 0.07 ± 0.04 | Normalized serum hAAT levels (hAAT; single IV 2 mg/kg + 4 mg/kg MLP, day 15): 0.50 ± 0.19 | Normalized serum hAAT levels (hAAT; single IV 2 mg/kg + 4 mg/kg MLP, day 20): 0.67 ± 0.12 | Normalized serum hAAT levels (hAAT; single IV 2 mg/kg + 4 mg/kg MLP, day 29): 0.89 ± 0.06 | Normalized serum hAAT levels (hAAT; single IV 2 mg/kg + 4 mg/kg MLP, day 36): 0.94 ± 0.17 | Normalized serum hAAT levels (hAAT; single IV 2 mg/kg + 4 mg/kg MLP, day −7): 0.90 ± 0.15 | Serum hAAT normalized to Day 1 and control (hAAT; single IV 2 mg/kg + 8 mg/kg MLP delivery polymer, Day 1): 1.00 | Serum hAAT normalized to Day 1 and control (hAAT; single IV 2 mg/kg + 8 mg/kg MLP delivery polymer, Day 3): 0.17 ± 0.03 | Serum hAAT normalized to Day 1 and control (hAAT; single IV 2 mg/kg + 8 mg/kg MLP delivery polymer, Day 8): 0.05 ± 0.00 | Serum hAAT normalized to Day 1 and control (hAAT; single IV 2 mg/kg + 8 mg/kg MLP delivery polymer, Day 15): 0.10 ± 0.03 | Serum hAAT normalized to Day 1 and control (hAAT; single IV 2 mg/kg + 8 mg/kg MLP delivery polymer, Day 22): 0.22 ± 0.03 | Serum hAAT normalized to Day 1 and control (hAAT; single IV 2 mg/kg + 8 mg/kg MLP delivery polymer, Day 29): 0.40 ± 0.06 | Serum hAAT normalized to Day 1 and control (hAAT; single IV 2 mg/kg + 8 mg/kg MLP delivery polymer, Day 35): 0.63 ± 0.04 | Serum hAAT normalized to Day 1 and control (hAAT; single IV 2 mg/kg + 8 mg/kg MLP delivery polymer, Day −3): 0.53 ± 0.08 | Normalized serum hAAT levels (hAAT; single IV 4 mg/kg + 2 mg/kg MLP, day 1): 1.00 | Normalized serum hAAT levels (hAAT; single IV 4 mg/kg + 2 mg/kg MLP, day 8): 0.08 ± 0.03 | Normalized serum hAAT levels (hAAT; single IV 4 mg/kg + 2 mg/kg MLP, day 15): 0.68 ± 0.13 | Normalized serum hAAT levels (hAAT; single IV 4 mg/kg + 2 mg/kg MLP, day 20): 0.90 ± 0.15 | Normalized serum hAAT levels (hAAT; single IV 4 mg/kg + 2 mg/kg MLP, day 29): 1.07 ± 0.07 | Normalized serum hAAT levels (hAAT; single IV 4 mg/kg + 2 mg/kg MLP, day 36): 1.01 ± 0.08 | Normalized serum hAAT levels (hAAT; single IV 4 mg/kg + 2 mg/kg MLP, day −7): 1.27 ± 0.07 | Serum hAAT normalized to Day 1 and control (hAAT; single IV 4 mg/kg + 4 mg/kg MLP delivery polymer, Day 1): 1.00 | Serum hAAT normalized to Day 1 and control (hAAT; single IV 4 mg/kg + 4 mg/kg MLP delivery polymer, Day 3): 0.27 ± 0.03 | Serum hAAT normalized to Day 1 and control (hAAT; single IV 4 mg/kg + 4 mg/kg MLP delivery polymer, Day 8): 0.13 ± 0.02 | Serum hAAT normalized to Day 1 and control (hAAT; single IV 4 mg/kg + 4 mg/kg MLP delivery polymer, Day 15): 0.23 ± 0.07 | Serum hAAT normalized to Day 1 and control (hAAT; single IV 4 mg/kg + 4 mg/kg MLP delivery polymer, Day 22): 0.58 ± 0.09 | Serum hAAT normalized to Day 1 and control (hAAT; single IV 4 mg/kg + 4 mg/kg MLP delivery polymer, Day 29): 0.60 ± 0.08 | Serum hAAT normalized to Day 1 and control (hAAT; single IV 4 mg/kg + 4 mg/kg MLP delivery polymer, Day 35): 0.92 ± 0.22
